Assay results taken from the NIST ThermoML archive (doi:10.1021/je049903o).
± gives the expanded uncertainty stated by the source.

Details: 298.15 K; 101.33 kPa; Liquid

| mass density | SMILES |
| --- | --- |
| 679.542 ± 0.45 kg/m3 | CCCCCCC [heptane] |
| 1007.12 ± 0.53 kg/m3 | COCCOCCOCCOCCOC [2,5,8,11,14-pentaoxapentadecane] |
| 980.625 ± 0.52 kg/m3 | COCCOCCOCCOC [2,5,8,11-tetraoxadodecane] |
| 698.548 ± 0.53 kg/m3 | CCCCCCCC [octane] |
| 726.357 ± 0.83 kg/m3 | CCCCCCCCCC [decane] |
| 759.274 ± 0.51 kg/m3 | CCCCCCCCCCCCCC [tetradecane] |
